Laboratory results as given in patent US9242984B2, “Pyrazolyl derivatives as Syk inhibitors” (Merck Sharp & Dohme Corp., priority 2012, dated 2016).

Target: T1, recombinant human Syk (GST-hSyk fusion protein) (Homo sapiens, UniProt P43405)
T1 construct: purchased Carna Biosciences 08-176
Test: Homogeneous Time-Resolved Fluorescence (HTRF) assay for the recombinant human Syk enzyme
Format: biochemical
Details: 10-dose titration, 25 μM ATP; read-out: rhSYK IC50
In short: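 GST-hSyk (5 pM) preincubated 10 min with compound (0.1% DMSO) in 15 mM Tris-HCl pH 7.5, 2 mM DTT; reaction started with 250 nM biotinylated peptide, 5 mM Mg, 25 μM ATP, 45 min, room temperature. EDTA quench, Eu-anti-phosphotyrosine/SA-APC HTRF read after 30 min; IC50 from 10-dose titration (10 μM–0.508 nM), four-parameter fit.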

Row | Compound | IC50
1 | COC(=O)[C@@H](N)Cn1cc(-c2cc(C)cc(Nc3nccc(C(F)(F)F)n3)c2)cn1 [Example 4.1, methyl 3-[4-(3-methyl-5-{[4-(trifluoromethyl)pyrimidin-2-yl]amino}phenyl)-1H-pyrazol-1-yl]-L-alaninate] | 27.4 nM
2 | Cc1cc(Nc2nccc(C(F)(F)F)n2)cc(-c2cnn(CC3(O)CCN(C(N)=O)CC3)c2)c1 [Example 17, 4-hydroxy-4-((4-(3-methyl-5-((4-(trifluoromethyl)pyrimidin-2-yl)amino)phenyl)-1H-pyrazol-1-yl)methyl)piperidine-1-carboxamide] | 13.9 nM
3 | Cc1cc(Nc2nccc(C(F)F)n2)cc(-c2cnn(C3CCCC(C)(O)C3O)c2)c1 (centres unmarked) [Example 22.6, 3-[4-(3-{[4-(difluoromethyl)pyrimidin-2-yl]amino}-5-methylphenyl)-1H-pyrazol-1-yl]-1-methylcyclohexane-1,2-diol] | 1.7 nM
4 | Cc1cc(Nc2nccc(C(F)F)n2)cc(-c2cnn(C3CCCC(C)(O)C3(C)O)c2)c1 (centres unmarked) [Example 22.11, 3-[4-(3-{[4-(difluoromethyl)pyrimidin-2-yl]amino}-5-methylphenyl)-1H-pyrazol-1-yl]-1,2-dimethylcyclohexane-1,2-diol] | 2.5 nM
5 | Cc1cc(Nc2nccc(C)n2)cc(-c2cnn(C3CCCC(O)C3O)c2)c1 (centres unmarked) [Example 10.9, 3-(4-{3-methyl-5-[(4-methylpyrimidin-2-yl)amino]phenyl}-1H-pyrazol-1-yl)cyclohexane-1,2-diol] | 4.8 nM

Same assay, conditions: IC50 class; 10-dose titration, 25 μM ATP; read-out: rhSYK Activity

Row | Compound | IC50
6 | Cc1cc(Nc2cc(C(F)(F)F)ccn2)nc(-c2cnn(C)c2)c1 [Example 1.13, 4-methyl-6-(1-methyl-1H-pyrazol-4-yl)-N-[4-(trifluoromethyl)pyridin-2-yl]pyridin-2-amine] | ≤ 100 nM
7 | Cc1cc(Nc2nccc(C(F)(F)F)n2)cc(-c2cnn(CC3(O)CCC(C(=O)O)C(C)(C)C3)c2)c1 (centres unmarked) [Example 12.6, 4-hydroxy-2,2-dimethyl-4-{[4-(3-methyl-5-{[4-(trifluoromethyl)pyrimidin-2-yl]amino}phenyl)-1H-pyrazol-1-yl]methyl}-cyclohexanecarboxylic acid] | ≤ 100 nM
8 | Cc1cc(Nc2nccc(C(F)(F)F)n2)cc(-c2cnn(CC3(O)CCN(C(N)=O)CC3)c2)c1 [Example 17, 4-hydroxy-4-((4-(3-methyl-5-((4-(trifluoromethyl)pyrimidin-2-yl)amino)phenyl)-1H-pyrazol-1-yl)methyl)piperidine-1-carboxamide] | ≤ 100 nM
9 | Cc1cc(Nc2nccc(C(F)(F)F)n2)cc(-c2cnn(CC(O)CO)c2)c1 (racemic) [Example 5.15, 3-[4-(3-methyl-5-{[4-(trifluoromethyl)-pyrimidin-2-yl]amino}-phenyl)-1H-pyrazol-1-yl]propane-1,2-diol] | ≤ 100 nM
10 | C[C@@](O)(CO)Cn1cc(-c2cccc(Nc3nccc(C(F)F)n3)c2)cn1 [Example 2.92, (2S)-3-[4-(3-{[4-(difluoromethyl)pyrimidin-2-yl]amino}phenyl)-1H-pyrazol-1-yl]-2-methylpropane-1,2-diol] | ≤ 100 nM
11 | Cc1cc(Nc2nccc(C(C)O)n2)cc(-c2cnn(C[C@](C)(O)CO)c2)c1 (stereo partly drawn) [Example 2.87, (2S)-3-[4-(3-{[4-(1-hydroxyethyl)pyrimidin-2-yl]amino}-5-methylphenyl)-1H-pyrazol-1-yl]-2-methylpropane-1,2-diol] | ≤ 100 nM
12 | Cc1cc(Nc2nccc(C(F)(F)F)n2)cc(-c2cnn(C[C@H](O)CO)c2)c1 [Example 3.42, (2S)-3-[4-(3-methyl-5-{[4-(trifluoromethyl)pyrimidin-2-yl]amino}phenyl)-1H-pyrazol-1-yl]propane-1,2-diol] | ≤ 100 nM
13 | 6-methyl-2-pyrazolo-[1,5-a]pyridin-3-yl-N-[4-(trifluoromethyl)-pyridin-2-yl]pyrimidin-4-amine [Example 1.42] | ≤ 100 nM
14 | Cc1cc(Nc2nccc(C(F)(F)F)n2)cc(-c2cnn(C[C@H](O)C(N)=O)c2)c1 [Example 7.4, (2S)-2-hydroxy-3-[4-(3-methyl-5-{[4-(trifluorometh-yl)pyrimidin-2-yl]amino}-phenyl)-1H-pyrazol-1-yl]propanamide] | ≤ 100 nM
15 | Cc1cc(Nc2nccc(C(F)(F)F)n2)cc(-c2cnn(CC3NC(=O)OC3C)c2)c1 (centres unmarked) [Example 3.129, 5-methyl-4-{[4-(3-methyl-5-{[4-(trifluoromethyl)pyrimidin-2-yl]amino}phenyl)-1H-pyrazol-1-yl]methyl}-1,3-oxazolidin-2-one] | ≤ 100 nM
16 | Cc1cc(Nc2nccc(C(F)(F)F)n2)cc(-c2cnn(CC(O)C(=O)O)c2)c1 (racemic) [Example 5.14, 2-hydroxy-3-[4-(3-methyl-5-{[4-(trifluoro-methyl)pyrimidin-2-yl]amino}-phenyl)-1H-pyrazol-1-yl]propanoic acid] | ≤ 100 nM
17 | Cc1cc(Nc2nccc(C(C)C)n2)cc(-c2cnn(CC3CNC(=O)O3)c2)c1 (centres unmarked) [Example 2.29, 5-{[4-(3-methyl-5-{[4-(1-methylethyl)pyrimidin-2-yl]amino}phenyl)-1H-pyrazol-1-yl]methyl}-1,3-oxazolidin-2-one] | ≤ 100 nM
18 | COc1nc(Nc2cc(C)cc(-c3cnn(CC4CNC(=O)O4)c3)c2)ncc1Cl (centres unmarked) [Example 2.23, 5-[(4-{3-[(5-chloro-4-methoxypyrimidin-2-yl)amino]-5-methylphenyl}-1H-pyrazol-1-yl)methyl]-1,3-oxazolidin-2-one] | ≤ 100 nM
19 | Cc1cc(Nc2nccc(C(F)(F)F)n2)cc(-c2cnn(CCCC(N)=O)c2)c1 [Example 8.9, 4-[4-(3-methyl-5-{[4-(trifluoromethyl)-pyrimidin-2-yl]amino}phenyl)-1H-pyrazol-1-yl]butanamide] | ≤ 100 nM

Continued, values first:

Row | IC50 | Compound
20 | ≤ 100 nM | COC1CC(O)(Cn2cc(-c3cc(C)cc(Nc4nccc(C)n4)c3)cn2)C1 (centres unmarked) [Example 12.3, 3-methoxy-1-[(4-{3-methyl-5-[(4-methylpyrimidin-2-yl)amino]phenyl}-1H-pyrazol-1-yl)methyl]-cyclobutanol]
21 | 1000 to 10000 nM | Cc1cc(Nc2nccc(C(F)(F)F)n2)cc(-c2cc(C(F)(F)F)nn2C)c1 [Example 1.10, N-{3-methyl-5-[1-methyl-3-(trifluoromethyl)-1H-pyrazol-5-yl]phenyl}-4-(trifluoromethyl)pyrimidin-2-amine]
22 | ≤ 100 nM | CCOC(=O)C(O)Cn1cc(-c2cc(C)cc(Nc3nccc(C(F)F)n3)c2)cn1 (centres unmarked) [Example 5.20, ethyl 3-[4-(3-{[4-(difluoromethyl)pyrimidin-2-yl]amino}-5-methylphenyl)-1H-pyrazol-1-yl]-2-hydroxypropanoate]
23 | ≤ 100 nM | COC(=O)[C@@H](N)Cn1cc(-c2cc(C)cc(Nc3nccc(C(F)(F)F)n3)c2)cn1 [Example 4.1, methyl 3-[4-(3-methyl-5-{[4-(trifluoromethyl)pyrimidin-2-yl]amino}phenyl)-1H-pyrazol-1-yl]-L-alaninate]
24 | ≤ 100 nM | Cc1cc(Nc2nccc(C(F)(F)F)n2)cc(-c2cnn(C(C)C(N)=O)c2)c1 (racemic) [Example 8.8, 2-[4-(3-methyl-5-{[4-(trifluoromethyl)-pyrimidin-2-yl]amino}phenyl)-1H-pyrazol-1-yl]propanamide]
25 | ≤ 100 nM | Cc1cc(Nc2nccc(C(F)F)n2)cc(-c2cnn(CCNC(=O)NC(C)(C)C)c2)c1 [Example 27.15, 1-tert-butyl-3-{2-[4-(3-{[4-(difluoromethyl)pyrimidin-2-yl]amino}-5-methylphenyl)-1H-pyrazol-1-yl]ethyl}urea]
26 | ≤ 100 nM | Cc1cc(Nc2nccc(C(F)F)n2)cc(-c2cnn(C3CCCC(C)(O)C3O)c2)c1 (centres unmarked) [Example 22.6, 3-[4-(3-{[4-(difluoromethyl)pyrimidin-2-yl]amino}-5-methylphenyl)-1H-pyrazol-1-yl]-1-methylcyclohexane-1,2-diol]
27 | ≤ 100 nM | Cc1cc(Nc2nccc(C(F)(F)F)n2)cc(-c2cnn(CC3NC(=O)OC3C)c2)c1 (centres unmarked) [Example 3.107, 5-methyl-4-{[4-(3-methyl-5-{[4-(trifluoromethyl)pyrimidin-2-yl]amino}phenyl)-1H-pyrazol-1-yl]methyl}-1,3-oxazolidin-2-one]
28 | ≤ 100 nM | COC(=O)C(C)(O)Cn1cc(-c2cc(C)cc(Nc3nccc(C(F)(F)F)n3)c2)cn1 (racemic) [Example 5.4, methyl 2-hydroxy-2-methyl-3-[4-(3-methyl-5-{[4-(trifluoro-methyl)pyrimidin-2-yl]amino}phenyl)-1H-pyrazol-1-yl]propanoate]
29 | ≤ 100 nM | Cc1cc(Nc2nccc(C(F)F)n2)cc(-c2cnn(CC(O)CNC(=O)OC(C)(C)C)c2)c1 (centres unmarked) [Example 5.21, tert-butyl {3-[4-(3-{[4-(difluoromethyl)pyrimidin-2-yl]amino}-5-methylphenyl)-1H-pyrazol-1-yl]-2-hydroxypropyl}carbamate]
30 | ≤ 100 nM | Cc1cc(Nc2nccc(C3CC3)n2)cc(-c2cnn(CCC(N)=O)c2)c1 [Example 2.14, 3-(4-{3-[(4-cyclopropylpyrimidin-2-yl)amino]-5-methylphenyl}-1H-pyrazol-1-yl)propanamide]
31 | ≤ 100 nM | Cc1cc(Nc2nccc(C(F)F)n2)cc(-c2cnn(CC(O)C(N)=O)c2)c1 (centres unmarked) [Example 5.18, 3-[4-(3-{[4-(difluoromethyl)pyrimidin-2-yl]amino}-5-methylphenyl)-1H-pyrazol-1-yl]-2-hydroxypropanamide]
32 | ≤ 100 nM | COCCNC(=O)[C@@H](O)Cn1cc(-c2cc(C)cc(Nc3nccc(C(F)(F)F)n3)c2)cn1 [Example 6.13, (2S)-2-hydroxy-N-(2-methoxyethyl)-3-[4-(3-methyl-5-{[4-(trifluorometh-yl)pyrimidin-2-yl]amino}phenyl)-1H-pyrazol-1-yl]propanamide]
33 | ≤ 100 nM | Cc1cc(Nc2cc(C3CC3)ccn2)nc(-c2cnn(CCC(=O)O)c2)c1 [Example 1.22, 3-(4-{6-[(4-cyclopropylpyridin-2-yl)amino]-4-methylpyridin-2-yl}-1H-pyrazol-1-yl)propanoic acid]
34 | ≤ 100 nM | Cc1cc(Nc2nccc(C(F)(F)F)n2)cc(-c2ccn(C)n2)c1 [Example 2.46, N-[3-methyl-5-(1-methyl-1H-pyrazol-3-yl)phenyl]-4-(trifluoromethyl)-pyrimidin-2-amine]
35 | ≤ 100 nM | Cc1cc(Nc2nccc(C(F)F)n2)cc(-c2cnn(CC(O)C(C)(C)C)c2)c1 (centres unmarked) [Example 5.30, 1-[4-(3-{[4-(difluoromethyl)pyrimidin-2-yl]amino}-5-methylphenyl)-1H-pyrazol-1-yl]-3,3-dimethylbutan-2-ol]
36 | ≤ 100 nM | Cc1cc(Nc2nccc(C(F)F)n2)cc(-c2cnn(CC3CC(=O)NC3=O)c2)c1 (centres unmarked) [Example 2.71, 3-{[4-(3-{[4-(difluoromethyl)pyrimidin-2-yl]amino}-5-methylphenyl)-1H-pyrazol-1-yl]methyl}pyrrolidine-2,5-dione]
37 | ≤ 100 nM | Cc1cc(Nc2nccc(C(F)F)n2)cc(-c2cnn(C3CCCC(C)(O)C3(C)O)c2)c1 (centres unmarked) [Example 22.11, 3-[4-(3-{[4-(difluoromethyl)pyrimidin-2-yl]amino}-5-methylphenyl)-1H-pyrazol-1-yl]-1,2-dimethylcyclohexane-1,2-diol]
38 | ≤ 100 nM | Cc1cc(Nc2nccc(C)n2)cc(-c2cnn(C3CCCC(O)C3O)c2)c1 (centres unmarked) [Example 10.9, 3-(4-{3-methyl-5-[(4-methylpyrimidin-2-yl)amino]phenyl}-1H-pyrazol-1-yl)cyclohexane-1,2-diol]
